In patent publication US20140023611A1 (priority 2010, published 2014):
pIC50: −log10 of the molar value.

Experiments:
human NaP2b (SLC34A2) = target: T1, human NaP2b (SLC34A2) (Homo sapiens, UniProt O95436); experiment: Inhibition of NaP2b-mediated Pi (33P) uptake in transfected HEK293 cells, human NaP2b; assay type: cell-based; details: read-out: pIC50 range for human NaP2b (converted)
T1 construct: host or cells: HEK293
T1 sequence (O95436 1-690): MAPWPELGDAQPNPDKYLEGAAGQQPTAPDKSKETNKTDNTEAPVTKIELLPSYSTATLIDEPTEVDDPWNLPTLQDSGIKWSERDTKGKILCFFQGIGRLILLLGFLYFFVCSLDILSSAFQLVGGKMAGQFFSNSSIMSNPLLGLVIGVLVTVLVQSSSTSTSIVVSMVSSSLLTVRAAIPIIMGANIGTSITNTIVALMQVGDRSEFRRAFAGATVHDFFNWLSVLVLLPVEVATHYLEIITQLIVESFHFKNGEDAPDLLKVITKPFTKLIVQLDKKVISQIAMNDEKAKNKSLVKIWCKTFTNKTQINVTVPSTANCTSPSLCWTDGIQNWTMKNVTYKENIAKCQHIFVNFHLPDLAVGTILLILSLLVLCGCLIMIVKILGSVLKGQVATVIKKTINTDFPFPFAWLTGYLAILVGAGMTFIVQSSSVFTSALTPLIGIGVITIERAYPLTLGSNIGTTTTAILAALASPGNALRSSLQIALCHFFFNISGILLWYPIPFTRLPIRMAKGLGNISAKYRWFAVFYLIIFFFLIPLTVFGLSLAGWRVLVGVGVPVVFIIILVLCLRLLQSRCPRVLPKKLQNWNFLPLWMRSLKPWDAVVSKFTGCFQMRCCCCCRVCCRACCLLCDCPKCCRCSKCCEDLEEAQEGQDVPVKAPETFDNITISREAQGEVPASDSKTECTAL
Procedure, shortened: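 HEK293 cells transiently transfected with human NaP2b (Thr inserted after residue 37, N39D), endogenous PiT transport pharmacologically silenced. Sodium or choline buffer, pH 7.4, with 100 uM KH2PO4, 33P orthophosphate and compound (0.1 nM–30 uM, twelve concentrations, duplicate). 3-30 min at room temperature, scintillation counting, pIC50 derived.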

rat NaP2b (SLC34A2) = target: T2, rat NaP2b (SLC34A2) (Rattus norvegicus, UniProt Q9JJ09); experiment: Inhibition of NaP2b-mediated Pi (33P) uptake in transfected HEK293 cells, rat NaP2b; assay type: cell-based; details: 33P Pi uptake, 0.1 mM phosphate, value given as pIC50 range
T2 construct: host or cells: HEK293
T2 sequence (Q9JJ09 1-695): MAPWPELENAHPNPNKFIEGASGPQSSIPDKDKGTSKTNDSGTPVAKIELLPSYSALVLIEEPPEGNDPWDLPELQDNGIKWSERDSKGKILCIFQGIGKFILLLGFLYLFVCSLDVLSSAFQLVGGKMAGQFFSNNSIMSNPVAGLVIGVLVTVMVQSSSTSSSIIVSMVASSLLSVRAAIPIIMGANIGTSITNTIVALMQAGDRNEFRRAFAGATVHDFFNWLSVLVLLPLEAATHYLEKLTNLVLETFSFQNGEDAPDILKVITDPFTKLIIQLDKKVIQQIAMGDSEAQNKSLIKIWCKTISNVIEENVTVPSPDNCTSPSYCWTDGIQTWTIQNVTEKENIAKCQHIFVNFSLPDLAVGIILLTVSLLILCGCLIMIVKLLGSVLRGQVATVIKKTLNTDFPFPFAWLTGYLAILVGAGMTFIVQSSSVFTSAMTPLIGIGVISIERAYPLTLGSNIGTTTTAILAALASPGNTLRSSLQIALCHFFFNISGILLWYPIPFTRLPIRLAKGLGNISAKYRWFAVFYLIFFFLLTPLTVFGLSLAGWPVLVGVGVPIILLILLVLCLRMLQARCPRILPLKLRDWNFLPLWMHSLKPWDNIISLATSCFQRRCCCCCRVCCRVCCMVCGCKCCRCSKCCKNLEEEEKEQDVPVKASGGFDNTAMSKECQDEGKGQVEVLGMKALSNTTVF
Procedure, shortened: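 HEK293 cells were transiently transfected with NaP2b cDNA using Lipofectamine and grown near confluence. Compounds were tested at twelve concentrations from 0.1 nM to 30 uM in duplicate, and 33P-phosphate uptake was counted by scintillation after lysis. Results are expressed as pIC50.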

[1] = Determination of compound Cmax and AUC after oral gavage (plasma LC-MS/MS); assay type: in vivo, Sprague-Dawley rats; details: Sprague-Dawley, rat, plasma, po, Structure (I) examples, Table 15, actual oral dose 3-15 mg/kg, plasma 0.5-4 h
Procedure: (§1) Sprague-Dawley rats were orally gavaged with test article at a nominal dose of 2.5 or 10 mg/kg and blood was collected at 0.5, 1, 2 and 4 h. Blood samples were processed to plasma using K2EDTA as an anticoaglulant. Plasma samples were treated with acetonitrile containing an internal standard, precipitated proteins removed by centrifugation. Supernatants were analyzed by LC-MS/MS and compound concentrations were determined by interpolation from a standard curve prepared in plasma. All compounds were orally dosed at the dosage shown, and pharmacokinetic parameters determined.
as §1, with “interpolated” for “interpolation”
as §1, with “interpolated” for “interpolation”

Row | SMILES | IC50 (human NaP2b (SLC34A2)) [µM] | pIC50 (rat NaP2b (SLC34A2)) | AUC [1] [ng·h/mL] | Cmax [1] [ng/mL]
1 | O=C(O)CCOCCOCCOCCNC(=O)c1cccc(SCc2cccc(C(=O)Nc3ccc(N4CCCCC4)cc3-c3cc(C(=O)N[C@H]4CCCc5ccccc54)ccn3)c2)c1 [Example 233, (S)-1-oxo-1-(3-(3-(4-(piperidin-1-yl)-2-(4-(1,2,3,4-tetrahydronaphthalen-1-ylcarbamoyl)pyridin-2-yl)phenylcarbamoyl)benzylthio)phenyl)-5,8,11-trioxa-2-azatetradecan-14-oic acid] | 1 to 7.94 | 5.10 to 6.00 | < 10 | < 10
2 | O=C(O)Cc1cccc(SCc2cccc(C(=O)Nc3ccc(N4CCCCC4)cc3-c3cc(C(=O)N[C@H]4CCCc5ccccc54)ccn3)c2)c1 [Example 234, (S)-2-(3-(3-(4-(piperidin-1-yl)-2-(4-(1,2,3,4-tetrahydronaphthalen-1-ylcarbamoyl)pyridin-2-yl)phenylcarbamoyl)benzylthio)phenyl)acetic acid] | < 1 | > 6.00 | < 30 | < 10
3 | CCN(CC)c1ccc(NC(=O)c2cccc(CSc3cccc(CC(=O)O)c3)c2)c(-c2cc(C(=O)NCc3cccc(C(F)(F)F)c3)ccn2)c1 [Example 143, 2-(3-(3-(4-(diethylamino)-2-(4-(3-(trifluoromethyl)benzylcarbamoyl)pyridin-2-yl)phenylcarbamoyl)benzylthio)phenyl)acetic acid] | < 1 | > 6.00 | < 10 | < 10
4 | CCN(CC)c1ccc(NC(=O)c2cccc(C#CCOCCOCCOCCOCCO)c2)c(-c2cc(C(=O)NCc3cccc(C(F)(F)F)c3)ccn2)c1 [Example 266, 2-(5-(diethylamino)-2-(3-(1-hydroxy-3,6,9,12-tetraoxapentadec-14-yn-15-yl)benzamido)phenyl)-N-(3-(trifluoromethyl)benzyl)isonicotinamide] | 1 to 7.94 | 5.10 to 6.00 | – | –
5 | O=C(O)c1cccc(COc2cccc(C(=O)Nc3ccc(N4CCCCC4)cc3-c3cc(C(=O)NCc4cccc(C(F)(F)F)c4)ccn3)c2)c1 [Example 183, 3-((3-(4-(piperidin-1-yl)-2-(4-(3-(trifluoromethyl)benzylcarbamoyl)pyridin-2-yl)phenylcarbamoyl)phenoxy)methyl)benzoic acid] | 1 to 7.94 | 5.10 to 6.00 | – | –
6 | CCN(CC)c1ccc(NC(=O)c2cccc(C(=O)N(C)CCN(C)CCOCCOCCOCCNC(=O)NCCN3CCOCC3)c2)c(-c2cc(C(=O)N[C@H]3CCCc4ccccc43)ccn2)c1 [Example 223, (S)—N1-(4-(diethylamino)-2-(4-(1,2,3,4-tetrahydronaphthalen-1-ylcarbamoyl)pyridin-2-yl)phenyl)-N3-methyl-N3-(17-methyl-1-morpholino-4-oxo-8,11,14-trioxa-3,5,17-triazanonadecan-19-yl)isophthalamide] | > 31.6 | 4.50 to 5.00 | – | –
7 | CN(CCN1CCNC(=O)C1)C(=O)c1cccc(C(=O)Nc2ccc(N3CCCCC3)cc2-c2cc(C(=O)N[C@H]3CCCc4ccccc43)ccn2)c1 [Example 215, (S)—N1-methyl-N1-(2-(3-oxopiperazin-1-yl)ethyl)-N3-(4-(piperidin-1-yl)-2-(4-(1,2,3,4-tetrahydronaphthalen-1-ylcarbamoyl)pyridin-2-yl)phenyl)isophthalamide] | < 1 | > 6.00 | < 10 | < 10
8 | O=C(O)CCOCCOCCOCCNC(=O)c1cccc2c1ccn2Cc1cccc(C(=O)Nc2ccc(N3CCCCC3)cc2-c2cc(C(=O)NCc3cccc(C(F)(F)F)c3)ccn2)c1 [Example 9.2, 1-Oxo-1-(1-(3-((4-(piperidin-1-yl)-2-(4-((3-(trifluoromethyl)benzyl)carbamoyl)pyridin-2-yl)phenyl)carbamoyl)benzyl)-1H-indol-4-yl)-5,8,11-trioxa-2-azatetradecan-14-oic acid] | < 1 | 5.10 to 6.00 | – | –

More lines, now with the values ahead:

Row | IC50 (human NaP2b (SLC34A2)) [µM] | pIC50 (rat NaP2b (SLC34A2)) | AUC [1] [ng·h/mL] | Cmax [1] [ng/mL] | SMILES
9 | < 1 | > 6.00 | < 10 | < 10 | CN1CCN(CCN(C)C(=O)c2cccc(C(=O)Nc3ccc(N4CCCCC4)cc3-c3cc(C(=O)N[C@H]4CCCc5ccccc54)ccn3)c2)CC1=O [Example 216, (S)—N1-methyl-N1-(2-(4-methyl-3-oxopiperazin-1-yl)ethyl)-N3-(4-(piperidin-1-yl)-2-(4-(1,2,3,4-tetrahydronaphthalen-1-ylcarbamoyl)pyridin-2-yl)phenyl)isophthalamide]
10 | < 1 | > 6.00 | – | – | CCN(CC)c1ccc(NC(=O)c2cccc(CCCOCCOCCOCCOCCC(=O)N(C)CCOCCOCCOCCOCCOCCOCCOC)c2)c(-c2cc(C(=O)N[C@H]3CCCc4ccccc43)ccn2)c1 [Example 280]
11 | 1 to 7.94 | 5.10 to 6.00 | – | – | O=C(O)CCOCCOCCOCCOCCCc1cccc(SCc2cccc(C(=O)Nc3ccc(N4CCCCC4)cc3-c3cc(C(=O)N[C@H]4CCCc5ccccc54)ccn3)c2)c1 [Example 247, 3-(2-(2-(2-(3-(3-((30S)-3-((2-(4-(((S)-1,2,3,4-tetrahydronaphthalen-1-yl)carbamoyl)pyridin-2-yl)-4-(piperidin-1-yl)phenyl)carbamoyl)benzylthio)phenyl)propoxy)ethoxy)ethoxy)ethoxy)propanoic acid]
12 | 1 to 7.94 | 4.50 to 5.00 | – | – | COCCOCCOCCOCCOCCOCCOCCOCC(=O)N1CCCN(CCN(C)C(=O)c2cccc(C(=O)Nc3ccc(N4CCCCC4)cc3-c3cc(C(=O)N[C@H]4CCCc5ccccc54)ccn3)c2)CC1 [Example 213, (S)—N1-(2-(4-2,5,8,11,14,17,20,23-octaoxapentacosane-1,4-diazepan-1-yl)ethyl)-N1-methyl-N3-(4-(piperidin-1-yl)-2-(4-(1,2,3,4-tetrahydronaphthalen-1-ylcarbamoyl)pyridin-2-yl)phenyl)isophthalamide]
13 | < 1 | > 6.00 | – | – | CN(CCOCCOCCOCCC(=O)N1CCN(CCOCCO)CC1)C(=O)Cc1cccc(SCc2cccc(C(=O)Nc3ccc(N4CCCCC4)cc3-c3cc(C(=O)N[C@H]4CCCc5ccccc54)ccn3)c2)c1 [Example 236, (S)-2-(2-(3-((3-(15-(4-(2-(2-hydroxyethoxy)ethyl)piperazin-1-yl)-3-methyl-21-2.15-dioxo-6,9,12-trioxa-3-azapentadecyl)phenylthio)methyl)benzamido)-5-(piperidin-1-yl)phenyl)-N-(1,2,3,4-tetrahydronaphthalen-1-yl)isonicotinamide]
14 | < 1 | > 6.00 | – | – | CCN(CC)c1ccc(NC(=O)c2cccc(C#CCOCCOCCOCCOCCOCCOCCOCCOCCOC)c2)c(-c2cc(C(=O)NCc3cccc(C(F)(F)F)c3)ccn2)c1 [Example 268, 2-(2-(3-(2,5,8,11,14,17,20,23,26-nonaoxanonacos-28-yn-29-yl)benzamido)-5-(diethylamino)phenyl)-N-(3-(trifluoromethyl)benzyl)isonicotinamide]
